Data: ChEMBL document CHEMBL5608182, “Synthesis and evaluation of neuroactive steroids with novel pharmacophore at C-21 let identify a compound with advantageous PK profile and higher EC50 and Emax as PAM on GABAA receptor” (Eur J Med Chem, 2024)
pEC50: −log10 of the molar value.

Biological target: T1, GABA-A receptor; alpha-1/beta-2/gamma-2 (Homo sapiens, UniProt P14867+P18507+P47870)
T1 sequence (P14867 whole entry): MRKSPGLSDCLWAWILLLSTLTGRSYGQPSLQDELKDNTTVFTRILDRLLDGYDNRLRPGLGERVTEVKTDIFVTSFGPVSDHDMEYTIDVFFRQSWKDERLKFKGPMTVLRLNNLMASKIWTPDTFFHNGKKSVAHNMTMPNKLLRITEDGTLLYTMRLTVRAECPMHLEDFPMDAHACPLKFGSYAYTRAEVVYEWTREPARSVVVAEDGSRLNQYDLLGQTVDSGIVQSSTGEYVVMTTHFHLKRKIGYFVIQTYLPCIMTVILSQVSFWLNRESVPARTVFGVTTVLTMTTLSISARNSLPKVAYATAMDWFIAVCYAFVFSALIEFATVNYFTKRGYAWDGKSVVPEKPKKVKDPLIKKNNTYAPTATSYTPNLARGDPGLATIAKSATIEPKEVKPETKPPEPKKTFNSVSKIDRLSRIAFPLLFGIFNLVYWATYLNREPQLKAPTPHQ
T1 sequence (P47870 whole entry): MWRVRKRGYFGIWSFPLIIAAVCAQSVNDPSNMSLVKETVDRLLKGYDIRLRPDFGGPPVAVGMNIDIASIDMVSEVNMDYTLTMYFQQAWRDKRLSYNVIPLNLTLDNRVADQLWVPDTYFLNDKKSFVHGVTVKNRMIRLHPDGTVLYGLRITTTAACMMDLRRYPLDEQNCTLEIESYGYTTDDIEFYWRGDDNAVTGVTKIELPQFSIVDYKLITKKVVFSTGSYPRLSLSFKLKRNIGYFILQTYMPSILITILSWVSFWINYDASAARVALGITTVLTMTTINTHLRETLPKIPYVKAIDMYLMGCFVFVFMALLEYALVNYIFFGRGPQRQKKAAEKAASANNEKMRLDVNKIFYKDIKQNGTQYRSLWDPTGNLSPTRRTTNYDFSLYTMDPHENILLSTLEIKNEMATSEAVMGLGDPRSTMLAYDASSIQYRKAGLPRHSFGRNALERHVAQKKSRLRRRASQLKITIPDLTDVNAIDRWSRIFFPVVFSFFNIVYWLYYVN
T1 sequence (P18507 whole entry): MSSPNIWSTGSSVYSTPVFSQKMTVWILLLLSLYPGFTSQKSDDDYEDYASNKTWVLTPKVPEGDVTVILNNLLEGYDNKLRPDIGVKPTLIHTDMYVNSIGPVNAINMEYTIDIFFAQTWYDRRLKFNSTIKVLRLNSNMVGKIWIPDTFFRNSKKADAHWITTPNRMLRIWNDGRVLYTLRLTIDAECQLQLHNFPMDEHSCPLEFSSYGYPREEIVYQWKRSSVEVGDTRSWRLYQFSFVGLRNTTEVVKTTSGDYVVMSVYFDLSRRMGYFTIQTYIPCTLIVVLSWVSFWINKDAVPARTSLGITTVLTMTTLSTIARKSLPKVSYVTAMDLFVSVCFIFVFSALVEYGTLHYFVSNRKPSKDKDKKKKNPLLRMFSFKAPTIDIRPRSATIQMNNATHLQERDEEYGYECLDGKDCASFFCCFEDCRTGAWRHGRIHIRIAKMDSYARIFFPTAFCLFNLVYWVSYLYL
Assay: Positive allosteric modulation of synaptic alpha1beta2gamma2 GABA-A receptor (unknown origin) transfected in LTK cells assessed as potentiation of GABA-induced peak current amplitude at -80 mV holding potential preincubated for 30 secs followed by GABA stimulation for 2 secs by Q-patch assay
Assay type: cell-based
Conditions: not given

SMILES | pEC50
C[C@@]1(O)CC[C@H]2[C@H](CC[C@@H]3[C@@H]2CC[C@]2(C)[C@@H](C(=O)Cn4cnn(-c5cccc(C#N)c5)c4=O)CC[C@@H]32)C1 | 6.95
CC(C)(C)n1ncn(CC(=O)[C@H]2CC[C@H]3[C@@H]4CC[C@@H]5C[C@](C)(O)CC[C@@H]5[C@H]4CC[C@]23C)c1=O | 6.51
Cn1ncn(CC(=O)[C@H]2CC[C@H]3[C@@H]4CC[C@@H]5C[C@](C)(O)CC[C@@H]5[C@H]4CC[C@]23C)c1=O | 6.35
C[C@@]1(O)CC[C@H]2[C@H](CC[C@@H]3[C@@H]2CC[C@]2(C)[C@@H](C(=O)Cn4cnn(-c5ccc(F)cc5F)c4=O)CC[C@@H]32)C1 | 6.11
C[C@@]1(O)CC[C@H]2[C@H](CC[C@@H]3[C@@H]2CC[C@]2(C)[C@@H](C(=O)Cn4cnn(C5CCCC5)c4=O)CC[C@@H]32)C1 | 6.72
C[C@@]1(O)CC[C@H]2[C@H](CC[C@@H]3[C@@H]2CC[C@]2(C)[C@@H](C(=O)Cn4cnn(-c5ccccc5F)c4=O)CC[C@@H]32)C1 | 6.77
C[C@@]1(O)CC[C@H]2[C@H](CC[C@@H]3[C@@H]2CC[C@]2(C)[C@@H](C(=O)Cn4cnn(CC(F)(F)F)c4=O)CC[C@@H]32)C1 | 6.26
C[C@@]1(O)CC[C@H]2[C@H](CC[C@@H]3[C@@H]2CC[C@]2(C)[C@@H](C(=O)Cn4cnn(-c5cccc(F)n5)c4=O)CC[C@@H]32)C1 | 6.43
C[C@@]1(O)CC[C@H]2[C@H](CC[C@@H]3[C@@H]2CC[C@]2(C)[C@@H](C(=O)Cn4cnn(-c5ccc(F)cc5)c4=O)CC[C@@H]32)C1 | 6.66
C[C@@]1(O)CC[C@H]2[C@H](CC[C@@H]3[C@@H]2CC[C@]2(C)[C@@H](C(=O)Cn4cnn(-c5cc(F)cc(F)c5)c4=O)CC[C@@H]32)C1 | 6.81

Biological target: Gamma-aminobutyric acid receptor subunit alpha-4/beta3/delta (Homo sapiens) (UniProt P28472+P48169+O14764)
Assay: Positive allosteric modulation of extrasynaptic alpha4beta3delta GABA-A receptor (unknown origin) transfected in CHO cells assessed as potentiation of GABA-induced peak current amplitude by measuring maximal efficacy at 0.01 to 10 uM at -80 mV holding potential preincubated for 30 secs followed by GABA stimulation for 2 secs by manual patch assay relative to control
Assay type: cell-based
Conditions: filed as positive allosteric modulator, dose 0.01-10 µM, time 32.0 sec

SMILES | Emax [%]
C[C@@]1(O)CC[C@H]2[C@H](CC[C@@H]3[C@@H]2CC[C@]2(C)[C@@H](C(=O)Cn4cnn(-c5cccc(C#N)c5)c4=O)CC[C@@H]32)C1 | 683
CC(C)(C)n1ncn(CC(=O)[C@H]2CC[C@H]3[C@@H]4CC[C@@H]5C[C@](C)(O)CC[C@@H]5[C@H]4CC[C@]23C)c1=O | 749
Cn1ncn(CC(=O)[C@H]2CC[C@H]3[C@@H]4CC[C@@H]5C[C@](C)(O)CC[C@@H]5[C@H]4CC[C@]23C)c1=O | 497
C[C@@]1(O)CC[C@H]2[C@H](CC[C@@H]3[C@@H]2CC[C@]2(C)[C@@H](C(=O)Cn4cnn(-c5ccc(F)cc5F)c4=O)CC[C@@H]32)C1 | 542
C[C@@]1(O)CC[C@H]2[C@H](CC[C@@H]3[C@@H]2CC[C@]2(C)[C@@H](C(=O)Cn4cnn(C5CCCC5)c4=O)CC[C@@H]32)C1 | 830
C[C@@]1(O)CC[C@H]2[C@H](CC[C@@H]3[C@@H]2CC[C@]2(C)[C@@H](C(=O)Cn4cnn(-c5ccccc5F)c4=O)CC[C@@H]32)C1 | 541
C[C@@]1(O)CC[C@H]2[C@H](CC[C@@H]3[C@@H]2CC[C@]2(C)[C@@H](C(=O)Cn4cnn(CC(F)(F)F)c4=O)CC[C@@H]32)C1 | 1280
C[C@@]1(O)CC[C@H]2[C@H](CC[C@@H]3[C@@H]2CC[C@]2(C)[C@@H](C(=O)Cn4cnn(-c5cccc(F)n5)c4=O)CC[C@@H]32)C1 | 966
C[C@@]1(O)CC[C@H]2[C@H](CC[C@@H]3[C@@H]2CC[C@]2(C)[C@@H](C(=O)Cn4cnn(-c5ccc(F)cc5)c4=O)CC[C@@H]32)C1 | 410
C[C@@]1(O)CC[C@H]2[C@H](CC[C@@H]3[C@@H]2CC[C@]2(C)[C@@H](C(=O)Cn4cnn(-c5cc(F)cc(F)c5)c4=O)CC[C@@H]32)C1 | 441

Biological target: Gamma-aminobutyric acid receptor subunit alpha-4/beta3/delta (Homo sapiens, UniProt O14764+P28472+P48169)
Assay: Positive allosteric modulation of extrasynaptic alpha4beta3delta GABA-A receptor (unknown origin) transfected in CHO cells assessed as potentiation of GABA-induced peak current amplitude at -80 mV holding potential preincubated for 30 secs followed by GABA stimulation for 2 secs by manual patch assay
Assay type: cell-based
Conditions: not given

Sequence of Gamma-aminobutyric acid receptor subunit alpha-4/beta3/delta (P28472 whole entry): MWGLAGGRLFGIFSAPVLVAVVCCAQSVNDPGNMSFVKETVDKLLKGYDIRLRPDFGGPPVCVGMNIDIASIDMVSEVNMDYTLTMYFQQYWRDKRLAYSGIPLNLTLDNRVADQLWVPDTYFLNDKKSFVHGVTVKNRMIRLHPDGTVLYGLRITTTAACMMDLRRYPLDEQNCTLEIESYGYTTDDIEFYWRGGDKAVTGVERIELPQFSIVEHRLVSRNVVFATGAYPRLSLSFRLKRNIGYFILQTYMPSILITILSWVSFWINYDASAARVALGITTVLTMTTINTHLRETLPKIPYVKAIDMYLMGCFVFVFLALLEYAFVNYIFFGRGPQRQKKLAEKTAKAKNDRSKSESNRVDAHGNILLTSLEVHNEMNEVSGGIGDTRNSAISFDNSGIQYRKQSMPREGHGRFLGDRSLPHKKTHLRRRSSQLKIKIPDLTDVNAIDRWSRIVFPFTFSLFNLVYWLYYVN
Sequence of Gamma-aminobutyric acid receptor subunit alpha-4/beta3/delta (P48169 whole entry): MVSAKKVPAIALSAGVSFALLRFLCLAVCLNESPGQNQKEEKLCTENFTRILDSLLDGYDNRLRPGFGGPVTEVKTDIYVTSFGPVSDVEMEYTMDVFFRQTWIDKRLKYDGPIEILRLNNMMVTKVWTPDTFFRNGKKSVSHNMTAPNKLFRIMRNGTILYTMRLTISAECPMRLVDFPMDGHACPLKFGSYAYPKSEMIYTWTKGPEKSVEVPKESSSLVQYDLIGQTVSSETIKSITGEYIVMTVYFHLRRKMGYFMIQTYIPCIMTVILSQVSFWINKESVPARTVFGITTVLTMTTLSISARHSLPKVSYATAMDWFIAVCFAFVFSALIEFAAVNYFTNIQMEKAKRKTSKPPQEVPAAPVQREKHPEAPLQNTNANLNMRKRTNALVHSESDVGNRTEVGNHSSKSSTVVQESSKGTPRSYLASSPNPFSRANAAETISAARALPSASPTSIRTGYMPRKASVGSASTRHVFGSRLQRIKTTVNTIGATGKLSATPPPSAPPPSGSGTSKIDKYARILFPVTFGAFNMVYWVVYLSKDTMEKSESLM
Sequence of Gamma-aminobutyric acid receptor subunit alpha-4/beta3/delta (O14764 whole entry): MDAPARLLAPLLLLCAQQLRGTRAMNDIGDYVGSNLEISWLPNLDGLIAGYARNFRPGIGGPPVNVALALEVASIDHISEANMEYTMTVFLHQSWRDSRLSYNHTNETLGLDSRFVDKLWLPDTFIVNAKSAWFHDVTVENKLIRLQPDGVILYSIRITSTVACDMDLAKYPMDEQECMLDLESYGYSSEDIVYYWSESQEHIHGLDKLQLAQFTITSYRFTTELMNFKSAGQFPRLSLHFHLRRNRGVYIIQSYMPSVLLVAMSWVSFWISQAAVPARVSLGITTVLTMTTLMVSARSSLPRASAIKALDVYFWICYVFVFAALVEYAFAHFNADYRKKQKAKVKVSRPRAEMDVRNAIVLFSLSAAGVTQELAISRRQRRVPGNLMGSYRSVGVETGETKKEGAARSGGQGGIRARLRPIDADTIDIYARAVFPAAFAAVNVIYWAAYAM

SMILES | pEC50
C[C@@]1(O)CC[C@H]2[C@H](CC[C@@H]3[C@@H]2CC[C@]2(C)[C@@H](C(=O)Cn4cnn(-c5cccc(C#N)c5)c4=O)CC[C@@H]32)C1 | 7.30
CC(C)(C)n1ncn(CC(=O)[C@H]2CC[C@H]3[C@@H]4CC[C@@H]5C[C@](C)(O)CC[C@@H]5[C@H]4CC[C@]23C)c1=O | 6.57
Cn1ncn(CC(=O)[C@H]2CC[C@H]3[C@@H]4CC[C@@H]5C[C@](C)(O)CC[C@@H]5[C@H]4CC[C@]23C)c1=O | 6.52
C[C@@]1(O)CC[C@H]2[C@H](CC[C@@H]3[C@@H]2CC[C@]2(C)[C@@H](C(=O)Cn4cnn(-c5ccc(F)cc5F)c4=O)CC[C@@H]32)C1 | 7.05
C[C@@]1(O)CC[C@H]2[C@H](CC[C@@H]3[C@@H]2CC[C@]2(C)[C@@H](C(=O)Cn4cnn(C5CCCC5)c4=O)CC[C@@H]32)C1 | 6.69
C[C@@]1(O)CC[C@H]2[C@H](CC[C@@H]3[C@@H]2CC[C@]2(C)[C@@H](C(=O)Cn4cnn(-c5ccccc5F)c4=O)CC[C@@H]32)C1 | 6.97
C[C@@]1(O)CC[C@H]2[C@H](CC[C@@H]3[C@@H]2CC[C@]2(C)[C@@H](C(=O)Cn4cnn(CC(F)(F)F)c4=O)CC[C@@H]32)C1 | 5.91
C[C@@]1(O)CC[C@H]2[C@H](CC[C@@H]3[C@@H]2CC[C@]2(C)[C@@H](C(=O)Cn4cnn(-c5cccc(F)n5)c4=O)CC[C@@H]32)C1 | 6.44
C[C@@]1(O)CC[C@H]2[C@H](CC[C@@H]3[C@@H]2CC[C@]2(C)[C@@H](C(=O)Cn4cnn(-c5ccc(F)cc5)c4=O)CC[C@@H]32)C1 | 6.77
C[C@@]1(O)CC[C@H]2[C@H](CC[C@@H]3[C@@H]2CC[C@]2(C)[C@@H](C(=O)Cn4cnn(-c5cc(F)cc(F)c5)c4=O)CC[C@@H]32)C1 | 7.46

Biological target: GABA-A receptor; alpha-1/beta-2/gamma-2 (Homo sapiens) (UniProt P14867+P47870+P18507)
Assay: Positive allosteric modulation of synaptic alpha1beta2gamma2 GABA-A receptor (unknown origin) transfected in LTK cells assessed as potentiation of GABA-induced peak current amplitude by measuring maximal efficacy at 0.01 to 10 uM at -80 mV holding potential preincubated for 30 secs followed by GABA stimulation for 2 secs by Q-patch assay relative to control
Assay type: cell-based
Conditions: filed as positive allosteric modulator, dose 0.01-10 µM, time 32.0 sec

SMILES | Emax [%]
C[C@@]1(O)CC[C@H]2[C@H](CC[C@@H]3[C@@H]2CC[C@]2(C)[C@@H](C(=O)Cn4cnn(-c5cccc(C#N)c5)c4=O)CC[C@@H]32)C1 | 1050
CC(C)(C)n1ncn(CC(=O)[C@H]2CC[C@H]3[C@@H]4CC[C@@H]5C[C@](C)(O)CC[C@@H]5[C@H]4CC[C@]23C)c1=O | 806
Cn1ncn(CC(=O)[C@H]2CC[C@H]3[C@@H]4CC[C@@H]5C[C@](C)(O)CC[C@@H]5[C@H]4CC[C@]23C)c1=O | 242
C[C@@]1(O)CC[C@H]2[C@H](CC[C@@H]3[C@@H]2CC[C@]2(C)[C@@H](C(=O)Cn4cnn(-c5ccc(F)cc5F)c4=O)CC[C@@H]32)C1 | 692
C[C@@]1(O)CC[C@H]2[C@H](CC[C@@H]3[C@@H]2CC[C@]2(C)[C@@H](C(=O)Cn4cnn(C5CCCC5)c4=O)CC[C@@H]32)C1 | 691
C[C@@]1(O)CC[C@H]2[C@H](CC[C@@H]3[C@@H]2CC[C@]2(C)[C@@H](C(=O)Cn4cnn(-c5ccccc5F)c4=O)CC[C@@H]32)C1 | 710
C[C@@]1(O)CC[C@H]2[C@H](CC[C@@H]3[C@@H]2CC[C@]2(C)[C@@H](C(=O)Cn4cnn(CC(F)(F)F)c4=O)CC[C@@H]32)C1 | 378
C[C@@]1(O)CC[C@H]2[C@H](CC[C@@H]3[C@@H]2CC[C@]2(C)[C@@H](C(=O)Cn4cnn(-c5cccc(F)n5)c4=O)CC[C@@H]32)C1 | 724
C[C@@]1(O)CC[C@H]2[C@H](CC[C@@H]3[C@@H]2CC[C@]2(C)[C@@H](C(=O)Cn4cnn(-c5ccc(F)cc5)c4=O)CC[C@@H]32)C1 | 390
C[C@@]1(O)CC[C@H]2[C@H](CC[C@@H]3[C@@H]2CC[C@]2(C)[C@@H](C(=O)Cn4cnn(-c5cc(F)cc(F)c5)c4=O)CC[C@@H]32)C1 | 1040
